From patent US20250250230A1, “HETEROCYCLIC COMPOUND” (TAKEDA PHARMACEUTICAL COMPANY LIMITED, priority 2022, published 2025)

Each compound was assayed against T1, human orexin type 2 receptor (Homo sapiens, UniProt O43614) (assay: Measurement of orexin type 2 receptor agonist activity (calcium fluorescence, Fluo-4 AM, FDSS)). Details: test compound 3 μM; CHO cells expressing human OX2 receptor; DMSO = 0%, orexin A (human) = 100%.
T1 construct: expressed in transfected cells
T1 sequence (O43614 1-444): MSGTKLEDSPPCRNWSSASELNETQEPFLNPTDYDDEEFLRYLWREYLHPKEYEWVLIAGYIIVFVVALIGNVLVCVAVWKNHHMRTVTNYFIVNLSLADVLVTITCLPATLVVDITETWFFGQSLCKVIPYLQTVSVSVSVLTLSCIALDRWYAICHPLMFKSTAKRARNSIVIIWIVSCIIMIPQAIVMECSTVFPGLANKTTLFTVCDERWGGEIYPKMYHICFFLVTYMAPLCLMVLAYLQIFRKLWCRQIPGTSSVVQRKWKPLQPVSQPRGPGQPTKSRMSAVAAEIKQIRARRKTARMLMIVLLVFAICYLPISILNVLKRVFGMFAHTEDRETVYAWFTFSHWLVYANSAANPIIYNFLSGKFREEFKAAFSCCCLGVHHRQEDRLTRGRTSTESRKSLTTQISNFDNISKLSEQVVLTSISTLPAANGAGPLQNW
Format: cell-based
Method in brief: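 CHO-K1 cells stably expressing human OX2R were loaded with Fluo-4 AM (30 min 37 °C, 30 min RT) in HEPES-buffered HBSS with 0.1% BSA and probenecid. Calcium fluorescence was followed on FDSS for 2 min after compound addition; activity normalised to DMSO (0%) and 10 nM orexin A (100%).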

SMILES | OX2R agonist activity (3 μM, %) [%]
CS(=O)(=O)NCC1CCCN(C(=O)C2CC2c2ccccc2-c2c(F)cccc2F)C1 (racemic) [Example 128, a mixture of rac-N-({(3R)-1-[(1R,2R)-2-(2′,6′-difluoro[1,1′-biphenyl]-2-yl)cyclopropane-1-carbonyl]piperidin-3-yl}methyl)methanesulfonamide and rac-N-({(3S)-1-[(1R,2R)-2-(2′,6′-difluoro[1,1′-biphenyl]-2-yl)cyclopropane-1-carbonyl]piperidin-3-yl}methyl)methanesulfonamide] | 89
Cc1ccc(C2CC2C(=O)N2CCC(NS(C)(=O)=O)C2)c(-c2c(F)cccc2F)c1 (racemic) [Example 136, a mixture of rac-N-{(3R)-1-[(1R,2R)-2-(2′,6′-difluoro-5-methyl[1,1′-biphenyl]-2-yl)cyclopropane-1-carbonyl]pyrrolidin-3-yl}methanesulfonamide and rac-N-{(3S)-1-[(1R,2R)-2-(2′,6′-difluoro-5-methyl[1,1′-biphenyl]-2-yl)cyclopropane-1-carbonyl]pyrrolidin-3-yl}methanesulfonamide] | 110
CS(=O)(=O)NC1CCN(C(=O)C2CC2c2ccccc2-c2cccc(F)c2F)C1 (racemic) [Example 81, a mixture of rac-N-{(3R)-1-[(1R,2R)-2-(2′,3′-difluoro[1,1′-biphenyl]-2-yl)cyclopropane-1-carbonyl]pyrrolidin-3-yl}methanesulfonamide and rac-N-{(3S)-1-[(1R,2R)-2-(2′,3′-difluoro[1,1′-biphenyl]-2-yl)cyclopropane-1-carbonyl]pyrrolidin-3-yl}methanesulfonamide] | 70
CS(=O)(=O)N[C@H]1CCN(C(=O)C2CC2c2c(F)cccc2-c2c(F)cccc2F)C1 (single isomer, unassigned) [Example 195, N-{(3S)-1-[(1R,2R)-2-(2′,3,6′-trifluoro[1,1′-biphenyl]-2-yl)cyclopropane-1-carbonyl]pyrrolidin-3-yl}methanesulfonamide, or N-{(3S)-1-[(1S,2S)-2-(2′,3,6′-trifluoro[1,1′-biphenyl]-2-yl)cyclopropane-1-carbonyl]pyrrolidin-3-yl}methanesulfonamide] | 99
C[C@@H]1CN(C(=O)[C@@H]2C[C@@]2(F)c2ccccc2-c2c(F)cccc2F)[C@H]1CNS(C)(=O)=O [Example 357, N-({(2R,3R)-1-[(1S,2S)-2-(2′,6′-difluoro[1,1′-biphenyl]-2-yl)-2-fluorocyclopropane-1-carbonyl]-3-methylazetidin-2-yl}methyl)methanesulfonamide] | 96
CS(=O)(=O)N[C@H]1CCCN(C(=O)C2CC2c2cccc(F)c2-c2c(F)cccc2F)CC1 (mixture of isomers) [Example 194, a mixture of N-{(4S)-1-[(1R,2R)-2-(2′,6,6′-trifluoro[1,1′-biphenyl]-2-yl)cyclopropane-1-carbonyl]azepan-4-yl}methanesulfonamide and N-{(4S)-1-[(1S,2S)-2-(2′,6,6′-trifluoro[1,1′-biphenyl]-2-yl)cyclopropane-1-carbonyl]azepan-4-yl}methanesulfonamide] | 100
CS(=O)(=O)NC1CCCN(C(=O)C2CC2c2ccccc2-c2c(F)cccc2F)CC1 (racemic) [Example 38, a mixture of rac-N-{(4R)-1-[(1R,2R)-2-(2′,6′-difluoro[1,1′-biphenyl]-2-yl)cyclopropane-1-carbonyl]azepan-4-yl}methanesulfonamide and rac-N-{(4S)-1-[(1R,2R)-2-(2′,6′-difluoro[1,1′-biphenyl]-2-yl)cyclopropane-1-carbonyl]azepan-4-yl}methanesulfonamide] | 106
CS(=O)(=O)N[C@H]1CCCCN(C(=O)C2CC2c2ccccc2-c2c(F)cccc2F)C1 (mixture of isomers) [Example 184, a mixture of N-{(3S)-1-[(1R,2R)-2-(2′,6′-difluoro[1,1′-biphenyl]-2-yl)cyclopropane-1-carbonyl]azepan-3-yl}methanesulfonamide and N-{(3S)-1-[(1S,2S)-2-(2′,6′-difluoro[1,1′-biphenyl]-2-yl)cyclopropane-1-carbonyl]azepan-3-yl}methanesulfonamide] | 108
CS(=O)(=O)NC1CCCN(C(=O)C2CC2c2sccc2-c2c(F)cccc2F)C1 (racemic) [Example 223, a mixture of rac-N-[(3R)-1-{(1R,2R)-2-[3-(2,6-difluorophenyl)thiophen-2-yl]cyclopropane-1-carbonyl}piperidin-3-yl]methanesulfonamide and rac-N-[(3S)-1-{(1R,2R)-2-[3-(2,6-difluorophenyl)thiophen-2-yl]cyclopropane-1-carbonyl}piperidin-3-yl]methanesulfonamide] | 81
CS(=O)(=O)NC1CCCN(C(=O)C2CC2c2ccccc2-c2cccc(F)c2F)C1 (racemic) [Example 67, a mixture of rac-N-{(3R)-1-[(1R,2R)-2-(2′,3′-difluoro[1,1′-biphenyl]-2-yl)cyclopropane-1-carbonyl]piperidin-3-yl}methanesulfonamide and rac-N-{(3S)-1-[(1R,2R)-2-(2′,3′-difluoro[1,1′-biphenyl]-2-yl)cyclopropane-1-carbonyl]piperidin-3-yl}methanesulfonamide] | 89
Cc1ccc(C2CC2C(=O)N2CCC(NS(C)(=O)=O)C2)c(-c2ccccc2F)c1 (racemic) [Example 209, a mixture of rac-N-{(3R)-1-[(1R,2R)-2-(2′-fluoro-5-methyl[1,1′-biphenyl]-2-yl)cyclopropane-1-carbonyl]pyrrolidin-3-yl}methanesulfonamide and rac-N-{(3S)-1-[(1R,2R)-2-(2′-fluoro-5-methyl[1,1′-biphenyl]-2-yl)cyclopropane-1-carbonyl]pyrrolidin-3-yl}methanesulfonamide] | 95
CCS(=O)(=O)NC[C@@H]1[C@H](F)CN1C(=O)C1CC1(F)c1ccccc1-c1ccccc1Cl (stereo partly drawn) [Example 441, N-({(2R,3R)-1-[(1R,2R)-2-(2′-chloro[1,1′-biphenyl]-2-yl)-2-fluorocyclopropane-1-carbonyl]-3-fluoroazetidin-2-yl}methyl)ethanesulfonamide, or N-({(2R,3R)-1-[(1S,2S)-2-(2′-chloro[1,1′-biphenyl]-2-yl)-2-fluorocyclopropane-1-carbonyl]-3-fluoroazetidin-2-yl}methyl)ethanesulfonamide] | 90
CC1(C)C(C(=O)N2CC[C@H](NS(C)(=O)=O)C2)C1c1ccccc1-c1c(F)cccc1F (mixture of isomers) [Example 287, a mixture of N-{(3S)-1-[(1R,2R)-2-(2′,6′-difluoro[1,1′-biphenyl]-2-yl)-2,2-dimethylcyclopropane-1-carbonyl]pyrrolidin-3-yl}methanesulfonamide and N-{(3S)-1-[(1S,3S)-3-(2′,6′-difluoro[1,1′-biphenyl]-2-yl)-2,2-dimethylcyclopropane-1-carbonyl]pyrrolidin-3-yl}methanesulfonamide] | 96
